# The source made the active and inactive calls. Rule as the data show it, for most assays here: actives have a measured Kd and inactives only a lower limit.
# What was measured:
# [1] = molecular target: Non-receptor tyrosine-protein kinase TYK2 (Homo sapiens, UniProt P29597)
# [2] = molecular target: Tyrosine-protein kinase ABL2 (Homo sapiens, UniProt P42684)
# [3] = molecular target: TRAF2 and NCK-interacting protein kinase (Homo sapiens, UniProt Q9UKE5)
# [4] = molecular target: Inosine-5'-monophosphate dehydrogenase 2 (Homo sapiens, UniProt P12268)
# [5] = molecular target: Activated CDC42 kinase 1 (Homo sapiens, UniProt Q07912)
# Activated CDC42 kinase 1, sequence (Q07912 whole entry, canonical isoform): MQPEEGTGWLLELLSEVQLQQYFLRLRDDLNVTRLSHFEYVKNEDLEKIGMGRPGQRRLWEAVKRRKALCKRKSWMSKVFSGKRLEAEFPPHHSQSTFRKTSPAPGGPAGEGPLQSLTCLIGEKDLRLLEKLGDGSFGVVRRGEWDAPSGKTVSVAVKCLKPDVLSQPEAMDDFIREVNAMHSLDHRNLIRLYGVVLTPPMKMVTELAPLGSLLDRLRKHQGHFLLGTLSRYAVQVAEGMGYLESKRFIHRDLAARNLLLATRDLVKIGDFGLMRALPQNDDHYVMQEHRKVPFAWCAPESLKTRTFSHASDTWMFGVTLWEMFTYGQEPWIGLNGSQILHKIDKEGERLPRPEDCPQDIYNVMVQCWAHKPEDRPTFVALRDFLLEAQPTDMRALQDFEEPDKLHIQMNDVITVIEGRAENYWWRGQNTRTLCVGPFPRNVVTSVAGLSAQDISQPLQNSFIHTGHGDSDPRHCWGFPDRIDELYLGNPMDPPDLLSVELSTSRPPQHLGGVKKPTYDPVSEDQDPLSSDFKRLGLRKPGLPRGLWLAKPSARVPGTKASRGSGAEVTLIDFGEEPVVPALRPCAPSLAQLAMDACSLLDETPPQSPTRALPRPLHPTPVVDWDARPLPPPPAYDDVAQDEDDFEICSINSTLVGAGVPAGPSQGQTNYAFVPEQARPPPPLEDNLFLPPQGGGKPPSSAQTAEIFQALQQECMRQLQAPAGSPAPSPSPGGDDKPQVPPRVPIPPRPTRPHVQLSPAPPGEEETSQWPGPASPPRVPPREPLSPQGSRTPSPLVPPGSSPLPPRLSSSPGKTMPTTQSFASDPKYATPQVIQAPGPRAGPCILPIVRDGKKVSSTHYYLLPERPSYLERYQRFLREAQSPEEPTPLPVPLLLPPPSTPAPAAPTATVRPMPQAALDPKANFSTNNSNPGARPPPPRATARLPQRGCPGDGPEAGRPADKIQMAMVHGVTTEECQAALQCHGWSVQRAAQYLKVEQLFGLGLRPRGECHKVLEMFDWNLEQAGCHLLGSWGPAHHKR
# [6] = molecular target: Casein kinase I isoform delta (Homo sapiens, UniProt P48730)
# Casein kinase I isoform delta, sequence (P48730 whole entry, canonical isoform): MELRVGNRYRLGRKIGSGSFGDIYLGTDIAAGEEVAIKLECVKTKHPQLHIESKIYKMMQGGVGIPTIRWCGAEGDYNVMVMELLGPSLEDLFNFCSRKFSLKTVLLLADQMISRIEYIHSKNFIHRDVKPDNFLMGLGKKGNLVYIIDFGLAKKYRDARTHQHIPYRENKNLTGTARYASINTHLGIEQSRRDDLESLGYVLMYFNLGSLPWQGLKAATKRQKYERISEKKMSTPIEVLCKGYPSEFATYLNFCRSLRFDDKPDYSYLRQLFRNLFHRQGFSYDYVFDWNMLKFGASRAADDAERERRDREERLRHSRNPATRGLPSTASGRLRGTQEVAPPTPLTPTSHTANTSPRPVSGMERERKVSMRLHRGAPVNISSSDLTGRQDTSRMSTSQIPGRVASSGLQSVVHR
# [7] = molecular target: Deoxycytidine kinase (Homo sapiens, UniProt P27707)
# Deoxycytidine kinase, sequence (P27707 whole entry): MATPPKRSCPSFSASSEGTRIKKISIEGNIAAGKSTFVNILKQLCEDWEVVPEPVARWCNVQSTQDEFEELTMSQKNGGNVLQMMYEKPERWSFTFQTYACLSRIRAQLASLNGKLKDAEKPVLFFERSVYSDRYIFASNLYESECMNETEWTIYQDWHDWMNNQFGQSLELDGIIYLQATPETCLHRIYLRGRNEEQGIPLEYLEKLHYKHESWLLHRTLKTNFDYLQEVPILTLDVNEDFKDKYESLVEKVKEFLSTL
# [8] = molecular target: T1, NUAK family SNF1-like kinase 2 (Homo sapiens, UniProt Q9H093)
# T1 sequence (Q9H093 whole entry): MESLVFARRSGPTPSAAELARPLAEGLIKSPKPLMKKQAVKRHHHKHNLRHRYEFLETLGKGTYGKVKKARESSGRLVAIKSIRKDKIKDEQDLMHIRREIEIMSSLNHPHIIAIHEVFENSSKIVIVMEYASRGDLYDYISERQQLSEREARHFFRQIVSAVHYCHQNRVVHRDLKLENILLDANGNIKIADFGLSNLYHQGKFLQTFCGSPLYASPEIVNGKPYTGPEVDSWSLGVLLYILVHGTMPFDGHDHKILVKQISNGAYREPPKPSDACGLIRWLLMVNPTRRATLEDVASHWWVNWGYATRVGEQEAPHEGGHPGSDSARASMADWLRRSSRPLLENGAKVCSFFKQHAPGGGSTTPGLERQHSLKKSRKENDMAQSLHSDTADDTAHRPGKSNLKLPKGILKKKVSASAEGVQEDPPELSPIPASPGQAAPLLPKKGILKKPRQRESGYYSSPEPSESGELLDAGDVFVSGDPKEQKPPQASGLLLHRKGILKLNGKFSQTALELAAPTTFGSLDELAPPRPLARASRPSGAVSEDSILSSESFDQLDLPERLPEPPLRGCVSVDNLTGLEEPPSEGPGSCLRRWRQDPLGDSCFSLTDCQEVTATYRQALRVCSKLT
# [9] = molecular target: Ribosomal protein S6 kinase beta-1 (Homo sapiens, UniProt P23443)
# Ribosomal protein S6 kinase beta-1, sequence (P23443 whole entry): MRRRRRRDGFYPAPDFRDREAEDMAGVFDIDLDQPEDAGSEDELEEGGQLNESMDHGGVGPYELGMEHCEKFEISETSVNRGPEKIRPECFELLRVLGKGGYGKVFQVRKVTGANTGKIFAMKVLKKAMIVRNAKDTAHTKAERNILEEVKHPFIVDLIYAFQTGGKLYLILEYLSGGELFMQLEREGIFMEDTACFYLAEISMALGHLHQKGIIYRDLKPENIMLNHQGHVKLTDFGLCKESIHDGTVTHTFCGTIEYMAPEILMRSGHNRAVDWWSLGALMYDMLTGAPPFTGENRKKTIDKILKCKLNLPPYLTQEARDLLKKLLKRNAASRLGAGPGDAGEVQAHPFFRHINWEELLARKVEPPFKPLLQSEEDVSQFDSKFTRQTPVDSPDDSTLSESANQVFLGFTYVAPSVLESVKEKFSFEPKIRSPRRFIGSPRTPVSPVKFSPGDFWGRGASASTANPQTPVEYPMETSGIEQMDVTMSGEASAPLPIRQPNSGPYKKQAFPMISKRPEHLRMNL
# [10] = molecular target: Mitogen-activated protein kinase kinase kinase kinase 5 (Homo sapiens, UniProt Q9Y4K4)
# [11] = molecular target: T2, Mitogen-activated protein kinase 15 (Homo sapiens, UniProt Q8TD08)
# T2 sequence (Q8TD08 whole entry): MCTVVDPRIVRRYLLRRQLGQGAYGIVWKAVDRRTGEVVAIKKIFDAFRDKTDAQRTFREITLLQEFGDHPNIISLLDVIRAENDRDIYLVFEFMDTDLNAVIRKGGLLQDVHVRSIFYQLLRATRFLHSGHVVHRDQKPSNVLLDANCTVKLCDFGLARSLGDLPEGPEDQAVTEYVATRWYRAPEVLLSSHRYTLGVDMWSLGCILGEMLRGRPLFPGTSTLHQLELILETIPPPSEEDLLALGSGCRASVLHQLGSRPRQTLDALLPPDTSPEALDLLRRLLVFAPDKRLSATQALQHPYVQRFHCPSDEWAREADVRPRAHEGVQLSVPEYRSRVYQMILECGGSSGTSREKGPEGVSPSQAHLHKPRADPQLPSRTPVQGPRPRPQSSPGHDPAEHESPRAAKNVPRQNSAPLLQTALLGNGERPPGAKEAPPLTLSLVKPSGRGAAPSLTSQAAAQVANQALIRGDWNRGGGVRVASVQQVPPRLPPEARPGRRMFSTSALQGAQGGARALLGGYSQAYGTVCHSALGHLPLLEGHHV
# [12] = molecular target: Receptor-interacting serine/threonine-protein kinase 2 (Homo sapiens, UniProt O43353)
# [13] = molecular target: Fibroblast growth factor receptor 1 (Homo sapiens, UniProt P11362)
# [14] = molecular target: Ribosomal protein S6 kinase alpha-4 (Homo sapiens, UniProt O75676)
# Ribosomal protein S6 kinase alpha-4, sequence (O75676 whole entry, canonical isoform): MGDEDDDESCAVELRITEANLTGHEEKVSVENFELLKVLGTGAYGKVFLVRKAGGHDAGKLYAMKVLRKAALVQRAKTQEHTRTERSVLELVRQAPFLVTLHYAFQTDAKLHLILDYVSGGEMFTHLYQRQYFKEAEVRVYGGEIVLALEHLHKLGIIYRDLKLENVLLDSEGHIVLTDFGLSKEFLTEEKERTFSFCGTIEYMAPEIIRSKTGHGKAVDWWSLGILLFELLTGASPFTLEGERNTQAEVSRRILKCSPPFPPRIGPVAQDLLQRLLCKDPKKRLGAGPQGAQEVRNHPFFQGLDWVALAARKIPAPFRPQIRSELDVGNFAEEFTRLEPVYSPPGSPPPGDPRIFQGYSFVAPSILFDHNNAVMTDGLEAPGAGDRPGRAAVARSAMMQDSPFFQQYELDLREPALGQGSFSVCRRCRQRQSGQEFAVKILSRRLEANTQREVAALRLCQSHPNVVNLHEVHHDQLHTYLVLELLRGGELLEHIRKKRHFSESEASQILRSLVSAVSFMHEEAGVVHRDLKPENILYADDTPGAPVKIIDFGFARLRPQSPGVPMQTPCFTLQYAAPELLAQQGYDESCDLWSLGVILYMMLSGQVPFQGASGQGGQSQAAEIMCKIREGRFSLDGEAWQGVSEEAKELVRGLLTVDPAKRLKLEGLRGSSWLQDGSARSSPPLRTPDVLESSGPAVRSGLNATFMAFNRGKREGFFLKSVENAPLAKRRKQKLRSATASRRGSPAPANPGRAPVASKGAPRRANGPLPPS
# [15] = molecular target: Casein kinase I isoform gamma-1 (Homo sapiens, UniProt Q9HCP0)
# [16] = molecular target: S-adenosylmethionine synthase isoform type-2 (Homo sapiens, UniProt P31153)
# [17] = molecular target: Putative heat shock protein HSP 90-beta 2 (Homo sapiens, UniProt Q58FF8)
# Putative heat shock protein HSP 90-beta 2, sequence (Q58FF8 whole entry): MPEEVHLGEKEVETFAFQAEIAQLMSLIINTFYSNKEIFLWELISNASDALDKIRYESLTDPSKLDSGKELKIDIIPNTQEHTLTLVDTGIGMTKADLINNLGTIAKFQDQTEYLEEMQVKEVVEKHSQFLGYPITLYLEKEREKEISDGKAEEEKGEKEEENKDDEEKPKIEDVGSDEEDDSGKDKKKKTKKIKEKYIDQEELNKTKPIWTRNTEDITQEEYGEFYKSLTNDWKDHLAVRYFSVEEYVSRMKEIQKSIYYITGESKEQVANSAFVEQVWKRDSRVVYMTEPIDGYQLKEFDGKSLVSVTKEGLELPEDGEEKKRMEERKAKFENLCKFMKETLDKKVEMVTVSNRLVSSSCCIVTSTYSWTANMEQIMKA
# [18] = molecular target: Cyclin-dependent kinase 7 (Homo sapiens, UniProt P50613)
# [19] = molecular target: Protein kinase C theta type (Homo sapiens, UniProt Q04759)
# [20] = molecular target: Tyrosine-protein kinase CSK (Homo sapiens, UniProt P41240)
# Also: in the data inactive means no Kd found up to 30 µM.
# TRAF2 and NCK-interacting protein kinase, sequence (Q9UKE5 whole entry): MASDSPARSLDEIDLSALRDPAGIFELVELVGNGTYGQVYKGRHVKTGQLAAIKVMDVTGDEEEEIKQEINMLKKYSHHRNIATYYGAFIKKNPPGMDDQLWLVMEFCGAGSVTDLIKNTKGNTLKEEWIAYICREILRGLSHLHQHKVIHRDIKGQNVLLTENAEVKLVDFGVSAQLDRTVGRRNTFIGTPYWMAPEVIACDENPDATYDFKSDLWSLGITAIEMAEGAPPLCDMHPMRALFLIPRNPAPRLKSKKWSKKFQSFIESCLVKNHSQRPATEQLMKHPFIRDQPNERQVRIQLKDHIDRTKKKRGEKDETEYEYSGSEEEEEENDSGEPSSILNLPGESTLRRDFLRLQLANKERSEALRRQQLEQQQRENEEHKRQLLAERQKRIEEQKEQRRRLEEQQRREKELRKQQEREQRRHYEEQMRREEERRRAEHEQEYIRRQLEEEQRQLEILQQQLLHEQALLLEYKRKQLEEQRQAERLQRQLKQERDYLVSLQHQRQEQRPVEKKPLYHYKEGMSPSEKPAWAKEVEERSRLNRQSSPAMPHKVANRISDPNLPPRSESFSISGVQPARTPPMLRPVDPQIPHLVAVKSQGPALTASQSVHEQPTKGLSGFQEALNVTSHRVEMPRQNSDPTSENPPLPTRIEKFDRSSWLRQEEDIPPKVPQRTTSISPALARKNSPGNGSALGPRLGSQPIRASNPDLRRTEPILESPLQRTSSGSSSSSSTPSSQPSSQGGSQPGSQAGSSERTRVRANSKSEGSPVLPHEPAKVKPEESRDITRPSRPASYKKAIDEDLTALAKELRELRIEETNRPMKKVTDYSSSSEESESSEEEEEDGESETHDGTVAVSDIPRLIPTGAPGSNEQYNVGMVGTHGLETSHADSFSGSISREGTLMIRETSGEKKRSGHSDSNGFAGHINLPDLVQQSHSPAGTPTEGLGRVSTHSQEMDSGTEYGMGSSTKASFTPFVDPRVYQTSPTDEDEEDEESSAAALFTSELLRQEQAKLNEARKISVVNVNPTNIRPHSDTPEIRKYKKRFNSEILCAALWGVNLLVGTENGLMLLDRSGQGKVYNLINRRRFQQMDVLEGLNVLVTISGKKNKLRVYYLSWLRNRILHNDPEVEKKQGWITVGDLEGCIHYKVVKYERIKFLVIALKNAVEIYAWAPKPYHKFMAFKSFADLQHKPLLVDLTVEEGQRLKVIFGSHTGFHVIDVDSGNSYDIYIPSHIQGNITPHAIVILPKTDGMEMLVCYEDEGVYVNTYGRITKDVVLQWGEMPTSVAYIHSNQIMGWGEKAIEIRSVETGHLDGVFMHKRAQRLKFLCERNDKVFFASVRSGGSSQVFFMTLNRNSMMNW
Kd [1],Kd [2],Kd [3],Kd [4],Kd [5],Kd [6],Kd [7],Kd [8],Kd [9],Kd [10],Kd [12],Kd [13],Kd [14],Kd [15],Kd [16],Kd [17],Kd [18],Kd [19],Kd [20],Structure (SMILES),Kd [11]
> 30 µM (inactive),> 30 µM (inactive),> 30 µM (inactive),> 30 µM (inactive),> 30 µM (inactive),> 30 µM (inactive),> 30 µM (inactive),> 30 µM (inactive),> 30 µM (inactive),> 30 µM (inactive),> 30 µM (inactive),> 30 µM (inactive),> 30 µM (inactive),> 30 µM (inactive),> 30 µM (inactive),> 30 µM (inactive),> 30 µM (inactive),> 30 µM (inactive),> 30 µM (inactive),COc1ncc(-c2ccc3nccc(-c4ccnnc4)c3c2)cc1NS(=O)(=O)c1ccc(F)cc1F [OMIPALISIB],> 30 µM (inactive)
> 30 µM (inactive),> 30 µM (inactive),> 30 µM (inactive),> 30 µM (inactive),> 30 µM (inactive),> 30 µM (inactive),> 30 µM (inactive),> 30 µM (inactive),> 30 µM (inactive),> 30 µM (inactive),> 30 µM (inactive),> 30 µM (inactive),> 30 µM (inactive),> 30 µM (inactive),> 30 µM (inactive),> 30 µM (inactive),> 30 µM (inactive),> 30 µM (inactive),> 30 µM (inactive),Cc1cnc(NC(=O)Nc2cc(Br)c(C)cc2OC[C@@H]2CNCCO2)cn1 [RABUSERTIB],> 30 µM (inactive)
> 30 µM (inactive),> 30 µM (inactive),> 30 µM (inactive),> 30 µM (inactive),> 30 µM (inactive),> 30 µM (inactive),> 30 µM (inactive),> 30 µM (inactive),> 30 µM (inactive),> 30 µM (inactive),> 30 µM (inactive),> 30 µM (inactive),> 30 µM (inactive),> 30 µM (inactive),> 30 µM (inactive),> 30 µM (inactive),> 30 µM (inactive),> 30 µM (inactive),> 30 µM (inactive),N#CC1(c2ccc(NC(=O)c3cccnc3NCc3ccncc3)cc2)CCCC1 [RIVOCERANIB],> 30 µM (inactive)
> 30 µM (inactive),> 30 µM (inactive),> 30 µM (inactive),> 30 µM (inactive),> 30 µM (inactive),> 30 µM (inactive),> 30 µM (inactive),> 30 µM (inactive),> 30 µM (inactive),> 30 µM (inactive),> 30 µM (inactive),> 30 µM (inactive),> 30 µM (inactive),> 30 µM (inactive),> 30 µM (inactive),> 30 µM (inactive),> 30 µM (inactive),> 30 µM (inactive),> 30 µM (inactive),O=c1[nH]ccc2cc(OC3CCNCC3)ccc12 [SAR-407899 FREE BASE],> 30 µM (inactive)
> 30 µM (inactive),> 30 µM (inactive),> 30 µM (inactive),> 30 µM (inactive),> 30 µM (inactive),> 30 µM (inactive),> 30 µM (inactive),> 30 µM (inactive),> 30 µM (inactive),> 30 µM (inactive),> 30 µM (inactive),> 30 µM (inactive),3.41 µM,> 30 µM (inactive),> 30 µM (inactive),> 30 µM (inactive),> 30 µM (inactive),> 30 µM (inactive),> 30 µM (inactive),Cn1cc(-c2cnn3c(N)c(Br)c([C@@H]4CCCNC4)nc23)cn1 [SCH-900776],> 30 µM (inactive)
> 30 µM (inactive),> 30 µM (inactive),> 30 µM (inactive),> 30 µM (inactive),> 30 µM (inactive),> 30 µM (inactive),> 30 µM (inactive),> 30 µM (inactive),> 30 µM (inactive),> 30 µM (inactive),> 30 µM (inactive),> 30 µM (inactive),> 30 µM (inactive),> 30 µM (inactive),> 30 µM (inactive),> 30 µM (inactive),> 30 µM (inactive),> 30 µM (inactive),> 30 µM (inactive),CO[C@H]1C[C@@H]2CC[C@@H](C)[C@@](O)(O2)C(=O)C(=O)N2CCCC[C@H]2C(=O)O[C@H]([C@H](C)C[C@@H]2CC[C@@H](OC(=O)C(C)(CO)CO)[C@H](OC)C2)CC(=O)[C@H](C)/C=C(\C)[C@@H](O)[C@@H](OC)C(=O)[C@H](C)C[C@H](C)/C=C/C=C/C=C/1C [TEMSIROLIMUS],> 30 µM (inactive)
> 30 µM (inactive),0.628 µM (active),> 30 µM (inactive),> 30 µM (inactive),> 30 µM (inactive),> 30 µM (inactive),> 30 µM (inactive),> 30 µM (inactive),> 30 µM (inactive),0.908 µM (active),0.033 µM (active),> 30 µM (inactive),> 30 µM (inactive),> 30 µM (inactive),> 30 µM (inactive),> 30 µM (inactive),> 30 µM (inactive),> 30 µM (inactive),> 30 µM (inactive),COc1cc2c(Nc3ccc(Cl)c(Cl)c3F)ncnc2cc1OC[C@@H]1C[C@@H]2CN(C)C[C@@H]2C1 [TESEVATINIB],> 30 µM (inactive)
> 30 µM (inactive),> 30 µM (inactive),> 30 µM (inactive),> 30 µM (inactive),> 30 µM (inactive),> 30 µM (inactive),> 30 µM (inactive),> 30 µM (inactive),> 30 µM (inactive),> 30 µM (inactive),> 30 µM (inactive),> 30 µM (inactive),> 30 µM (inactive),> 30 µM (inactive),> 30 µM (inactive),> 30 µM (inactive),> 30 µM (inactive),> 30 µM (inactive),> 30 µM (inactive),O=C(Cc1ccc(-c2ccc(OCCN3CCOCC3)cc2)cn1)NCc1ccccc1 [TIRBANIBULIN],> 30 µM (inactive)

Structure (SMILES),Kd [1],Kd [2],Kd [3],Kd [4],Kd [5],Kd [6],Kd [7],Kd [8],Kd [9],Kd [10],Kd [12],Kd [13],Kd [14],Kd [15],Kd [16],Kd [17],Kd [18],Kd [19],Kd [20],Kd [11]
Cc1cc(Nc2ncnc3ccc(NC4=NC(C)(C)CO4)cc23)ccc1Oc1ccn2ncnc2c1 [TUCATINIB],> 30 µM (inactive),> 30 µM (inactive),> 30 µM (inactive),> 30 µM (inactive),> 30 µM (inactive),> 30 µM (inactive),> 30 µM (inactive),> 30 µM (inactive),> 30 µM (inactive),> 30 µM (inactive),> 30 µM (inactive),> 30 µM (inactive),> 30 µM (inactive),> 30 µM (inactive),> 30 µM (inactive),> 30 µM (inactive),> 30 µM (inactive),> 30 µM (inactive),> 30 µM (inactive),> 30 µM (inactive)
